Values quoted from earlier work, collected in US20080287519A1, “Amorphous eletriptan hydrobromide and process for preparing it and other forms of eletriptan hydrobromide” (priority 2007, published 2008).

Legend:
[1] = target: dopaminergic D1 receptors (Homo sapiens, UniProt P21728)
5-HT1B receptor = 5-HT1B receptor (Homo sapiens, UniProt P28222)
[2] = test system: adrenergic alpha1 receptors
5-HT4 receptor = 5-HT4 receptor (Homo sapiens, UniProt Q13639)
5-HT6 receptor = 5-HT6 receptor (Homo sapiens, UniProt P50406)
5-HT1A receptor = target: T1, 5-HT1A receptor (Homo sapiens, UniProt P08908)
T1 sequence (P08908 1-422): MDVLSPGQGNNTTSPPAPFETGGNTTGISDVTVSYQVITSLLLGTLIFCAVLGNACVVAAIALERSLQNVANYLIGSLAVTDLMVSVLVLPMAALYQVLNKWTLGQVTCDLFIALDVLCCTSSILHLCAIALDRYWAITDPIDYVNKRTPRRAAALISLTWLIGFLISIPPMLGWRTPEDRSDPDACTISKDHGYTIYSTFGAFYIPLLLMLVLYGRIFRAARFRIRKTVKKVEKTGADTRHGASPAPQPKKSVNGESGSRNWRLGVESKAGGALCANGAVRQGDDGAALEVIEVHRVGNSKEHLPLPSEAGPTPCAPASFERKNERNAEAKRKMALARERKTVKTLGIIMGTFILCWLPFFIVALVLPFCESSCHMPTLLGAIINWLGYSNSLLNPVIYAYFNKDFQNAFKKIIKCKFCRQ

5-HT2B receptor = 5-HT2B receptor (Homo sapiens, UniProt P41595)
5-HT1E receptor = 5-HT1E receptor (Homo sapiens, UniProt P28566)
5-HT1D receptor = 5-HT1D receptor (Homo sapiens, UniProt P28221)
[3] = test system: adrenergic beta receptors
5-HT2C receptor = target: T2, 5-HT2C receptor (Homo sapiens, UniProt P28335)
T2 sequence (P28335 33-458): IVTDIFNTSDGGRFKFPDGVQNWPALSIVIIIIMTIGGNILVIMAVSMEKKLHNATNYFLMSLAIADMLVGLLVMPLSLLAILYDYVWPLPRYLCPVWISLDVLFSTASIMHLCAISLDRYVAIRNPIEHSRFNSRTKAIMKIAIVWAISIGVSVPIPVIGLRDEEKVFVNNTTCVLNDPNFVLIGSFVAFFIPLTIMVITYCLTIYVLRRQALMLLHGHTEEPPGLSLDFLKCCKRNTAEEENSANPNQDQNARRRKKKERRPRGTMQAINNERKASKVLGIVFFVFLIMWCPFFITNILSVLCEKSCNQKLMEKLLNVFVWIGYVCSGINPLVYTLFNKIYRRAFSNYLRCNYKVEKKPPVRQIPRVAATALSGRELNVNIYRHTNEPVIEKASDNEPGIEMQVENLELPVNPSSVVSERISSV

5-HT1F receptor = target: T3, 5-HT1F receptor (Homo sapiens, UniProt P30939)
T3 sequence (P30939 1-366): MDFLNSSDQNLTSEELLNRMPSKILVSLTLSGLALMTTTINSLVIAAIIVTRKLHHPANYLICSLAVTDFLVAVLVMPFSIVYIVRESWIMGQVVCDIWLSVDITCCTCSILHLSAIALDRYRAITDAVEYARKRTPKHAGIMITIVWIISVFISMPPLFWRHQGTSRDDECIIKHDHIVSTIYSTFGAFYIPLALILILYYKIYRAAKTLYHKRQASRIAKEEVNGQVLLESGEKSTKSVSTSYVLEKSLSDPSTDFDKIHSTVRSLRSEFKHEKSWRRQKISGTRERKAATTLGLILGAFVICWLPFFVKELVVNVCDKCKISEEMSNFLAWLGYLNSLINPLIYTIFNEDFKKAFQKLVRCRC

5-HT2A receptor = 5-HT2A receptor (Homo sapiens, UniProt P28223)
5-HT7 receptor = 5-HT7 receptor (Homo sapiens, UniProt P34969)
[4] = test system: adrenergic alpha2 receptors
[5] = target: dopaminergic D2 receptors (Homo sapiens, UniProt P14416)
5-HT5A receptor = 5-HT5A receptor (Homo sapiens, UniProt P47898)
Sequence of 5-HT5A receptor (P47898 whole entry): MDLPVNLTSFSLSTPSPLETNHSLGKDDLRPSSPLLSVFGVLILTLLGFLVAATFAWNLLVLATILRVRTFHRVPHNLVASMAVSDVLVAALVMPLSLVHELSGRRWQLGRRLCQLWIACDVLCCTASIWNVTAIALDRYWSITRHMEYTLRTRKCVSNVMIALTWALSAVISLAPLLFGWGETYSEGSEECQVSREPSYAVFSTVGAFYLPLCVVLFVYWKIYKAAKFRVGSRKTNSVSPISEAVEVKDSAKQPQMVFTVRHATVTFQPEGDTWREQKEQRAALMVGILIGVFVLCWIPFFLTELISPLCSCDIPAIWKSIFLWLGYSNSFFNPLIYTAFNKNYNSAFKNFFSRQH

Sequence of 5-HT4 receptor (Q13639 whole entry): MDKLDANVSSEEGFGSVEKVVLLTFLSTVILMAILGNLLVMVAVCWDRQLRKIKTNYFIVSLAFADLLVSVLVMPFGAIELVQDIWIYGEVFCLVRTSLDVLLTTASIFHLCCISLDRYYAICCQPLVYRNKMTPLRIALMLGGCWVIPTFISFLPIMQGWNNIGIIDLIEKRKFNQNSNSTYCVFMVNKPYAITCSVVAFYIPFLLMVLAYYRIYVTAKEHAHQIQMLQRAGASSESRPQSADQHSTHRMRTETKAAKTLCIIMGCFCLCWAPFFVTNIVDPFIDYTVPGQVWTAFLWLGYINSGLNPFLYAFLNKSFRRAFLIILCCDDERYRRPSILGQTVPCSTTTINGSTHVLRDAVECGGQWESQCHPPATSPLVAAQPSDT
Sequence of 5-HT1E receptor (P28566 whole entry): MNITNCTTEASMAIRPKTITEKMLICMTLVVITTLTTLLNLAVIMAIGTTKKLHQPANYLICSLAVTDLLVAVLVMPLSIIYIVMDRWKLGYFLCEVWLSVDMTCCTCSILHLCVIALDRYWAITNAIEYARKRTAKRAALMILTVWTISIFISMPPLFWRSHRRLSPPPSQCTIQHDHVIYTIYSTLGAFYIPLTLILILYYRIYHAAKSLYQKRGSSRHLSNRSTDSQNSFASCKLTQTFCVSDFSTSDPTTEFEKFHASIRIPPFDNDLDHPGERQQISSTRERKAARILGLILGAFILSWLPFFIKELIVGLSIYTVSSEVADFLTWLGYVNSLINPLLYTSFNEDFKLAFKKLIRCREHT
Sequence of 5-HT1D receptor (P28221 whole entry): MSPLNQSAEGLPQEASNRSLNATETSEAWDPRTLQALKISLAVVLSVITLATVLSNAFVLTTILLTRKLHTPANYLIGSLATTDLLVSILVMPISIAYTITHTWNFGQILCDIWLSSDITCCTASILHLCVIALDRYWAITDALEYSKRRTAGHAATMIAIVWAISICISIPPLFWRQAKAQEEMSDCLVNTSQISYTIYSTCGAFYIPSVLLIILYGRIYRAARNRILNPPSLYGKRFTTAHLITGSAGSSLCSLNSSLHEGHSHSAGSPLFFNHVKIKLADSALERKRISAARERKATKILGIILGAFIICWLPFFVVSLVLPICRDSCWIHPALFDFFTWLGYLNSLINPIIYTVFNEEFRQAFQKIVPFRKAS
Sequence of 5-HT2A receptor (P28223 whole entry): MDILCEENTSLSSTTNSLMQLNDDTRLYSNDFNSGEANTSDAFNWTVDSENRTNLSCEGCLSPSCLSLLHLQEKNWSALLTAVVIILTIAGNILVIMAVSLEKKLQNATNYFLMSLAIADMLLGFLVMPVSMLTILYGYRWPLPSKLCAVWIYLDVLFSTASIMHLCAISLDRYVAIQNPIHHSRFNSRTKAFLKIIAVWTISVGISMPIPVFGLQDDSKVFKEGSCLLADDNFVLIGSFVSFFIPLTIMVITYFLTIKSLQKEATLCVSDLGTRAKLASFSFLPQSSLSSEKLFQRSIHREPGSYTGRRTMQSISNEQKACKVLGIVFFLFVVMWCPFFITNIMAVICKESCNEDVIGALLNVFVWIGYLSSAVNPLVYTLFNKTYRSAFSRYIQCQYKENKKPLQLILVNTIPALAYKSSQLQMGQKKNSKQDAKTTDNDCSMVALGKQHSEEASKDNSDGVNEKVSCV
Sequence of dopaminergic D1 receptors (P21728 whole entry): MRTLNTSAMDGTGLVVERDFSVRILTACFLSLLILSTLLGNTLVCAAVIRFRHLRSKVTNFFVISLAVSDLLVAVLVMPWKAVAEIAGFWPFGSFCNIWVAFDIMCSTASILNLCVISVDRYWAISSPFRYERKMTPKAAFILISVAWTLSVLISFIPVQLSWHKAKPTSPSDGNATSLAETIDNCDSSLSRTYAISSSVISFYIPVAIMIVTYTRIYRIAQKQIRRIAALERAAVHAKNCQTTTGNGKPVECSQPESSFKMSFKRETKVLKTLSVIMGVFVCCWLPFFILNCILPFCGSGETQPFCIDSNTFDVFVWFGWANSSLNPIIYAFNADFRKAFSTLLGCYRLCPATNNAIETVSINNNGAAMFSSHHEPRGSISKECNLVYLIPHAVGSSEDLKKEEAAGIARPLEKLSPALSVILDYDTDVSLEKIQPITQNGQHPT
Sequence of 5-HT2B receptor (P41595 whole entry): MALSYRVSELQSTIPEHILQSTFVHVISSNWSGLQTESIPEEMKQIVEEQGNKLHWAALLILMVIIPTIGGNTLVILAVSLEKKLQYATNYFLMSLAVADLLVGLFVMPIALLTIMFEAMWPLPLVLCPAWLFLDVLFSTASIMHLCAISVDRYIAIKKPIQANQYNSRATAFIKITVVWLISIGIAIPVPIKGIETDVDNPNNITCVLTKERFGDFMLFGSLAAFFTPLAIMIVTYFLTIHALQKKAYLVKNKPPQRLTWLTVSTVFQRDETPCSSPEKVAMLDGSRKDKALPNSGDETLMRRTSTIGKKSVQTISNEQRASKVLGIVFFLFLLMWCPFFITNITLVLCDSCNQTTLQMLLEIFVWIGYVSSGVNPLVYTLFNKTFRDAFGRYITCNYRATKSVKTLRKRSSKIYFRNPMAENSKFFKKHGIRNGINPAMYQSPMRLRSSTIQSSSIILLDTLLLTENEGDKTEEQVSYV
Sequence of dopaminergic D2 receptors (P14416 whole entry): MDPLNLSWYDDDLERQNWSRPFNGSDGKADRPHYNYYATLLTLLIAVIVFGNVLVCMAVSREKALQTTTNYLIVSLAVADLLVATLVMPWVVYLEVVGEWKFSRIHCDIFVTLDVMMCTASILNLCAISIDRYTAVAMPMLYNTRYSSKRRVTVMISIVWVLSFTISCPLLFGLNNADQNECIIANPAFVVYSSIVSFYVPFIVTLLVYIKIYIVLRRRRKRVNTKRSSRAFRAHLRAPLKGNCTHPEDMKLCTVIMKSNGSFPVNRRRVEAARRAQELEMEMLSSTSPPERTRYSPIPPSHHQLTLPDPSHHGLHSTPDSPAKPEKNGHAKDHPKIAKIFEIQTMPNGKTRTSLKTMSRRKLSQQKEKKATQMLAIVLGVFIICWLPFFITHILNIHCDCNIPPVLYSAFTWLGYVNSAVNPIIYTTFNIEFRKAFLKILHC
Sequence of 5-HT1B receptor (P28222 whole entry): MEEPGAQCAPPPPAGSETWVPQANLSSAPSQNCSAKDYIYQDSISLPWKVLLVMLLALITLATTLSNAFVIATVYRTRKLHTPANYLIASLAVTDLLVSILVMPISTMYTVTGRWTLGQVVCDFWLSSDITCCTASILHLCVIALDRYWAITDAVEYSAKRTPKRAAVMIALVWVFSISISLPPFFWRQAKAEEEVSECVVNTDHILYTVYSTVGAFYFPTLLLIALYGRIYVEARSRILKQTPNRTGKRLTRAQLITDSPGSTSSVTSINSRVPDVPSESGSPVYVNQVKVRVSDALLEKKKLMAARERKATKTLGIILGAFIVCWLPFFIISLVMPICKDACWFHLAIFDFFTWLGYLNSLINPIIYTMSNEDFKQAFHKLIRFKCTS
Sequence of 5-HT7 receptor (P34969 whole entry): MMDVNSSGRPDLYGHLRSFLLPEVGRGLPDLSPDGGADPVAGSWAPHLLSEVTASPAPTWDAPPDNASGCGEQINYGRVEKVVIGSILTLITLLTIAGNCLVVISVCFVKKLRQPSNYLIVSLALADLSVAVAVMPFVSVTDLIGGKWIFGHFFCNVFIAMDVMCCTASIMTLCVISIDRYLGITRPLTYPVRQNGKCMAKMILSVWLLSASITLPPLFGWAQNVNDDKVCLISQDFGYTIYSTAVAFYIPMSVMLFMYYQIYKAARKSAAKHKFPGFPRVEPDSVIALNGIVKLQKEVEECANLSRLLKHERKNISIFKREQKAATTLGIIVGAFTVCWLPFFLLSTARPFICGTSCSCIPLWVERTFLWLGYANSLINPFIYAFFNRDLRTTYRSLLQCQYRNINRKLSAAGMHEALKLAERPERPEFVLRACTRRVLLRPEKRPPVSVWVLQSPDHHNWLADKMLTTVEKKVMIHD
Sequence of 5-HT6 receptor (P50406 whole entry): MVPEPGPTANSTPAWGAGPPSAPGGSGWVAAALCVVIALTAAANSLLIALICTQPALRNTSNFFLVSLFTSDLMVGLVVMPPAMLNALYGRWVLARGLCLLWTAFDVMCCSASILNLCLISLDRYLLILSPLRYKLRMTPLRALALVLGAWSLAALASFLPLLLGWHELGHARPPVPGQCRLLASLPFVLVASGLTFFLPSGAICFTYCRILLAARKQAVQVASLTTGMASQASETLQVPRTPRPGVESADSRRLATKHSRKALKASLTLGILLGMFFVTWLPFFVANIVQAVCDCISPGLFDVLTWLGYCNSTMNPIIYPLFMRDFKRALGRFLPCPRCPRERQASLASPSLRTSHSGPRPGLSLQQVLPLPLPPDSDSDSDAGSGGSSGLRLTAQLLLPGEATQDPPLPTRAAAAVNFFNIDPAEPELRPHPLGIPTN

affinity (5-HT1B receptor): high affinity
affinity (5-HT4 receptor): little or no affinity
affinity (5-HT6 receptor): little or no affinity
affinity (5-HT1A receptor): modest affinity
affinity (5-HT2B receptor): modest affinity
affinity (5-HT1E receptor): modest affinity
affinity (5-HT1D receptor): high affinity
affinity (5-HT2C receptor): little or no affinity
affinity (5-HT3 receptor): little or no affinity
affinity (5-HT1F receptor): high affinity
affinity (5-HT2A receptor): little or no affinity
affinity (5-HT7 receptor): modest affinity
affinity (5-HT5A receptor): little or no affinity
Compound: CN1CCC[C@@H]1Cc1c[nH]c2ccc(CCS(=O)(=O)c3ccccc3)cc12 [Eletriptan, 3-(N-methyl-2(R)-pyrrolidinylmethyl)-5-(2-phenylsulphonylethyl)-1H-indole]
affinity or pharmacological activity [1]: no significant affinity or pharmacological activity
affinity or pharmacological activity (muscarinic receptors): no significant affinity or pharmacological activity
affinity or pharmacological activity [2]: no significant affinity or pharmacological activity
affinity or pharmacological activity [3]: no significant affinity or pharmacological activity
affinity or pharmacological activity (opioid receptors): no significant affinity or pharmacological activity
affinity or pharmacological activity [4]: no significant affinity or pharmacological activity
affinity or pharmacological activity [5]: no significant affinity or pharmacological activity
